Like-named read-outs stand apart in the source and are kept apart here.
How the values were obtained:
COVID-19 [1] = conditions: intensive care observational series; cited from earlier work
COVID-19 [2] = conditions: RECOVERY platform trial; cited from earlier work
SARS-COV-2 [3] = conditions: for Resolution of Symptoms Odds ratio / Viral Clearance Odds ratio: multivariate logistic regression, within 7 days, azithromycin with the listed drug(s), hydroxychloroquine = reference, N = 475; for Resolution of Symptoms Odds ratio: except anosmia, ageusia; for Increase in viral clearance rate: first 7 days of therapy; for Increase in viral clearance rate / Increase in symptom resolution rate: versus control; for Increase in symptom resolution rate: first week of therapy; for Viral clearance at seven days in men: spironolactone compared to dutasteride; for Odds ratio for viral clearance within seven days when used with nitazoxanide: multivariate analysis; for Adverse events: short duration administration
[4] = in vivo; cited from earlier work
SARS-COV-2 [5] = conditions: dutasteride 0.5 mg per day, male patients; cited from earlier work
COVID-19 [6] = conditions: 5 mg daily, without achieving statistical significance; cited from earlier work
COVID-19 [7] = tested on: COVID-19
SARS-COV-2 [8] = conditions: cited from earlier work
COVID-19 [9] = test: Proxalutamide treatment for hospitalized COVID-19 patients, double-blinded placebo-controlled trial, preliminary report; type: in vivo; conditions: n = 294
COVID-19 [10] = conditions: single case, after starting proxalutamide; cited from earlier work
COVID-19 [11] = conditions: cited from earlier work

Compound: C[C@]12CCC(=O)C=C1C=C[C@@H]1[C@@H]2CC[C@@]2(C)[C@H]1CC[C@@]21CCC(=O)O1 [Canrenone]
- Fatalities (COVID-19 [1]): reduced fatalities

Compound: COc1cc2c(c(OC)c1OC)-c1ccc(OC)c(=O)cc1[C@@H](NC(C)=O)CC2 [Colchicine]
- 28-day mortality rate ratio (COVID-19 [2]): 1.01

Compound: CCN(CCO)CCCC(C)Nc1ccnc2cc(Cl)ccc12 (stereo not shown) [Hydroxychloroquine]
- Resolution of Symptoms Odds ratio (SARS-COV-2 [3]): 1
- Viral Clearance Odds ratio (SARS-COV-2 [3]): 1

Compound: CC(=O)Oc1ccccc1C(=O)Nc1ncc([N+](=O)[O-])s1 [Nitazoxanide]
- Resolution of Symptoms Odds ratio (SARS-COV-2 [3]): 2.08
- Viral Clearance Odds ratio (SARS-COV-2 [3]): 1.88
- Association with faster viral clearance (SARS-COV-2 [3]; two times a day for 6 days combined with azithromycin): not associated faster clearance

Compound: C[C@]12C=CC(=O)N[C@@H]1CC[C@@H]1[C@@H]2CC[C@]2(C)[C@@H](C(=O)Nc3cc(C(F)(F)F)ccc3C(F)(F)F)CC[C@@H]12 [dutasteride]
- Increase in viral clearance rate (SARS-COV-2 [3]): 320%
- Increase in symptom resolution rate (SARS-COV-2 [3]): 70%
- Viral clearance at seven days in men (SARS-COV-2 [3]): 21%
- Odds ratio for viral clearance within seven days when used with nitazoxanide (SARS-COV-2 [3]; with nitazoxanide): 7.1
- Viral clearance at seven days among nitazoxanide male users (SARS-COV-2 [3]; nitazoxanide male users): 21%
- Adverse events (SARS-COV-2 [3]): no adverse events noted
- Half-life [4]: five
- Viral clearance at seven days (SARS-COV-2 [5]): 64.3%

Compound: CC(C)(C)NC(=O)[C@H]1CC[C@H]2[C@@H]3CC[C@H]4NC(=O)C=C[C@]4(C)[C@H]3CC[C@]12C [finasteride]
- Half-life [4]: six
- Inpatient mortality (COVID-19 [6]): reduced inpatient mortality

Compound: CC1(C)C(=O)N(c2ccc(C#N)c(C(F)(F)F)c2F)C(=S)N1c1ccc(CCCc2ncco2)nc1 [proxalutamide]
- 28-day median ordinal scale score (COVID-19 [7]; COVID-19 8-point ordinal scale): 1
- 14-day median ordinal scale score (COVID-19 [7]; COVID-19 8-point ordinal scale, intention-to-treat, proxalutamide 300 mg/day): 1
- Median post-randomization time to recovery (COVID-19 [7]; alive hospital discharge): 5 days
- 14-day recovery rate (COVID-19 [7]; alive hospital discharge (scores 1, 2), intention-to-treat): 81.4%
- Less likely to die than patients in the control group (COVID-19 [7]; during the study period): 84%
- Median hospitalization time (days) (COVID-19 [7]; human, in vivo): eight
- Treatment emergent adverse events (COVID-19 [7]; human, in vivo): limited to diarrhea
- Difference in the proportion of alive hospital discharge (COVID-19 [7]; increased until day 11): 75%
- 28-day all-cause mortality rate (COVID-19 [7]; intention-to-treat): 11.0%
- Hazard ratio for all-cause mortality (death) (COVID-19 [7]; over 28 days, versus placebo): 0.16
- Risk ratio for death (COVID-19 [7]; over 28 days, versus placebo): 0.22
- Number needed to treat (NNT) to prevent one death (COVID-19 [7]; over twenty-eight days): 3
- Adverse events grades 4 or 3 (COVID-19 [7]; proxalutamide arm): 2.2%
- Diarrhea (COVID-19 [7]; proxalutamide arm): 16.1%
- Irritability (COVID-19 [7]; proxalutamide arm): 1.3%
- 14-day recovery ratio (COVID-19 [7]; versus placebo): 2.28
- 28-day recovery ratio (COVID-19 [7]; versus placebo): 1.81
- Higher recovery rate than placebo at 28 days (COVID-19 [7]; versus placebo): 81%
- Higher recovery rate than placebo at day 14 (COVID-19 [7]; versus placebo): 128%
- Viral clearance at seven days in men (SARS-COV-2 [8]; men): 81%
- Viral clearance at seven days in women (SARS-COV-2 [8]; women): 85%
- Mortality (%) Day 14 (COVID-19 [9]; hospitalized COVID-19 patients, proxalutamide 300 mg q.d.): 3.7%
- Discharged (%) Day 14 (COVID-19 [9]): 89.1%
- Full clinical remission (%) Day 14 (COVID-19 [9]): 75.9%
- HFO, NIV, or MV use, or death (%) Day 14 (COVID-19 [9]): 4.8%
- Hospital Length Stay (Days) Mean ± SD (COVID-19 [9]): 6.3 ± 5.3 days
- Hospital Length Stay (Days) Median (IQR) (COVID-19 [9]): 5.0 days
- Improvement in clinical status - Ordinary scale (days) One point Mean ± SD (COVID-19 [9]): 3.0 ± 5.5 days
- Improvement in clinical status - Ordinary scale (days) One point Median (IQR) (COVID-19 [9]): 1.0 days
- Improvement in clinical status - Ordinary scale (days) Two points Mean ± SD (COVID-19 [9]): 5.5 ± 7.1 days
- Improvement in clinical status - Ordinary scale (days) Two points Median (IQR) (COVID-19 [9]): 3.0 days
- New mechanical ventilation (MV) or Death (%) Day 14 (COVID-19 [9]): 4.4%
- No HFO or NIV use (%) Day 14 (COVID-19 [9]): 95.2%
- No oxygen use (%) Day 14 (COVID-19 [9]): 92.5%
- Time to striking symptom resolution and laboratory improvement (COVID-19 [10]): twenty-four
- Reduction of the risk of hospitalization (COVID-19 [11]; compared to usual care): 91%
- 30-day hospitalization rate (COVID-19 [11]; proxalutamide 200 mg for up to seven days, men): 2.2%

Compound: CC(=O)S[C@@H]1CC2=CC(=O)CC[C@]2(C)[C@H]2CC[C@@]3(C)[C@@H](CC[C@@]34CCC(=O)O4)[C@H]12 [spironolactone]
- Increase in viral clearance rate (SARS-COV-2 [3]): 320%
- Increase in symptom resolution rate (SARS-COV-2 [3]): 70%
- Viral clearance at seven days in men (SARS-COV-2 [3]): 40%
- Odds ratio for viral clearance within seven days when used with nitazoxanide (SARS-COV-2 [3]; with nitazoxanide): 10.1
- Adverse events (SARS-COV-2 [3]): no adverse events noted
- Viral clearance at seven days (SARS-COV-2 [3]; spironolactone initiated at the time of COVID-19 diagnosis): 34%
- Viral clearance at seven days, added to ivermectin (SARS-COV-2 [3]; with ivermectin): 26%
- Viral clearance at seven days, added to nitazoxanide (SARS-COV-2 [3]; with nitazoxanide): 42%

Compound: Ivermectin
- Resolution of Symptoms Odds ratio (SARS-COV-2 [3]): 1.45
- Viral Clearance Odds ratio (SARS-COV-2 [3]): 0.32
